How the values were obtained:
[1] = tested on: A/Lyon/969/2009 H275Y (H1N1); format: cell-based, influenza virus
[2] = tested on: influenza A/Lyon/969/09 (H1N1)pdm09 virus; format: cell-based; conditions: basolateral medium replaced with fresh medium without drugs

Row | Compound | Viral titer [1] [log TCID50/ml] | Reversibility of inhibitory and protective properties [2]
1 | CCNCC(O)c1cccc(O)c1 (stereo not drawn) [Etilefrine] | 2.8 | 
2 | COc1ccc([C@@H]2Sc3ccccc3N(CCN(C)C)C(=O)[C@@H]2OC(C)=O)cc1 [Diltiazem] | 2.8 | progressively reversible

Reference: article PMC6361841, “Repurposing of Drugs as Novel Influenza Inhibitors From Clinical Gene Expression Infection Signatures” (Frontiers in Immunology, 2019)
